Test results taken from patent publication US20230364029A1, “POLYMORPHIC FORMS OF (R)-2-HYDROXY-2-METHYL-4-(2,4,5-TRIMETHYL-3,6-DIOXOCYCLOHEXA-1,4-DIENYL)BUTANAMIDE” (PTC THERAPEUTICS, INC., priority 2014, published 2023).

Key:
[1] = test system: cells from patients having Huntington’s Disease (Coriell GM 04281); experiment: Fibroblast screen similar to Example 12, Huntington’s Disease cells; format: cell-based; conditions: Homo sapiens
auditory HEI-OC 1 cells = experiment: Protection from cisplatin-induced ototoxicity (caspase3/7 activity); format: cell-based, mice; conditions: overnight pretreatment, 24 hours of 50 uM cisplatin
Experimental: The conditionally immortalized auditory HEI-OC 1 cells from long-term cultures of transgenic mice Immortomouse™ cochleas as described in Kalinec, G. et al., Audiol. Nerootol. 2003; 8, 177-189/. were maintained in high glucose Dulbecco’s modified Eagle medium (DMEM) containing 10% FBS under permissive conditions, 33° C., 10%CO2. Cells were pretreated overnight with (R)-2-hydroxy-2-methyl-4-(2,4,5-trimethyl-3,6-dioxocyclohexa-1,4-dienyl)butanamide, and apoptosis was detected by caspase3/7 activity after 24 hours of 50 uM cisplatin incubation. Cells incubated in diluent alone were the controls.

[2] = test system: cells from patients having Leigh Syndrome (Coriell GMOI503A); experiment: Fibroblast screen similar to Example 12, Leigh Syndrome cells; format: cell-based; conditions: Homo sapiens
[3] = test system: cells from patients having Parkinson’s Disease (Coriell AG20439); experiment: Fibroblast screen similar to Example 12, Parkinson’s Disease cells; format: cell-based; conditions: Homo sapiens
[4] = test system: cells from patients having a CoQ2 mutation (CoQ10 Deficiency); experiment: Fibroblast screen similar to Example 12, CoQ10 Deficiency cells; format: cell-based; conditions: Homo sapiens
[5] = Competitive slurries of Patterns A-F; format: physicochemical; conditions: competitive slurry of Patterns A-F in 0.5% MC/water, ambient
Experimental: Competitive slurry experiments of Patterns A, B, C, D, E and F were initiated in IPA, IPA/2% water and 0.5% Methyl Cellulose in water at ambient conditions as summarized in Table 16. Approximately 100 mg of the starting material, Pattern A, was added to a glass vial fitted with a magnetic stir bar. Solvent was added to the vial and allowed to slurry with Pattern A for 15 minutes before approximately 10-20 mg of each relative Pattern (B, C, D, E and F) was added to each vial.

[6] = test system: cells from patients having Rett’s Disorder (Coriell GM-17567); experiment: Fibroblast screen similar to Example 12, Rett’s Disorder cells; format: cell-based; conditions: Homo sapiens
[7] = test system: cells from patients having Leber’s Hereditary Optic Neuropathy (LHON) (Coriell GM03858); experiment: Fibroblast screen similar to Example 12, LHON cells; format: cell-based; conditions: Homo sapiens
[8] = test system: Human dermal fibroblasts from Friedreich’s Ataxia patients (GM04078); experiment: Rescue of BSO-stressed FRDA fibroblasts; format: cell-based; conditions: Friedrich’s Ataxia, Calcein AM viability
Experimental: An initial screen was performed to identify compounds effective for the amelioration of redox disorders. Test samples were tested for their ability to rescue FRDA fibroblasts stressed by addition of L-buthionine-(S,R)-sulfoximine (BSO), as described in Jauslin et al., Hum. Mol. Genet. 11(24):3055 (2002), Jauslin et al., FASEB J. 17:1972-4 (2003), and International Patent Application WO 2004/003565.
MEM (a medium enriched in amino acids and vitamins, catalog no. 1-31F24-I) and Medium 199 (M199, catalog no. 1-21F22-I) with Earle’s Balanced Salts, without phenol red, were purchased from Bioconcept. Fetal Calf Serum was obtained from PAA Laboratories. Basic fibroblast growth factor and epidermal growth factor were purchased from PeproTech. Penicillin-streptomycin-glutamine mix, L-buthionine (S,R)-sulfoximine, and insulin from bovine pancreas were purchased from Sigma. Calcein AM was purchased from Anaspec. […]
100 microliters of PBS +Ca +Mg containing 1.2 micromolar Calcein AM were then added to each well. […] After that time fluorescence (excitation/emission wavelengths of 485 nm and 525 nm, respectively) was read on a Gemini fluorescence reader. […]

[9] = test system: cells from patients having Amyotrophic Lateral Sclerosis (ALS) (Coriell ND29523); experiment: Fibroblast screen similar to Example 12, ALS cells; format: cell-based; conditions: Homo sapiens

In the case of CC1=C(C)C(=O)C(CC[C@@](C)(O)C(N)=O)=C(C)C1=O [(R)-2-hydroxy-2-methyl-4-(2,4,5-trimethyl-3,6-dioxocyclohexa-1,4-dienyl)butanamide], the EC50 [1] is reported as less than 100 nM, the EC25 (auditory HEI-OC 1 cells) is reported as “+++ (+++ indicates less than 100 micromolar)” and the EC50 [2] is reported as less than 100 nM. The EC50 [3] was 100 to 500 nM, the EC50 [4] was less than 100 nM and the “XRPD 24 hrs” value [5] was “A/C”. The EC50 [6] was less than 100 nM, the EC50 [7] was less than 100 nM and the EC50 [8] was less than 100 nM. The EC50 [9] was less than 100 nM.
